Laboratory results: publication PMC7219108, “Pisum sativum Defensin 1 Eradicates Mouse Metastatic Lung Nodules from B16F10 Melanoma Cells” (International Journal of Molecular Sciences, 2020)

Columns and labels:
[1] = test system: R8 (rat lymphocyte) cells; experiment: LDH release cell viability, healthy R8 cells; assay type: cell-based; settings: 30 µM, 3 h (6 µM not tested)
[2] = test system: HEK-293 (human embryonic kidney) cells; experiment: Cell viability, healthy HEK-293 cells; assay type: cell-based; settings: 3 h
B16F10 cells [3] = experiment: Mitochondrial staining (MitoTracker Red CMXRos), B16F10 cells; assay type: cell-based, murine; settings: 50 µM
Method: Figure 2 Psd1 promotes B16F10 live cell membrane permeabilization as monitored by SYTOX Green fluorescence. (A) Psd1 untreated and hydrogen peroxide-treated B16F10 cells. (B) A total of 1.5 × 10^4 B16F10 cells were incubated with 3 or 50 µM Psd1 for 30 min. (C) 1.5 × 10^4 B16F10 cells were incubated with 50 µM Psd1 for 1 h. All experiments were performed at 37 °C. Nucleus staining is shown in green (SYTOXGreen), and mitochondria are shown in red (MitoTracker Red CMXRos). Images are shown at 20× magnification. […] (E) Psd1 induces apoptosis in B16F10 cells. B16F10 cells were treated with 50 µM Psd1 for 24 h and labeled with propidium iodide, and the DNA content was analyzed by flow cytometry for the sub-G0/G1 profile. […]
Figure 3 Fluorescein isothiocyanate (FITC)-Psd1 was localized in the B16F10 live cell nucleus. […] (C) The mean fluorescence intensity (MIF) of MitoTracker and FITC-Psd1 labeled cells measured over time. […]
Images were obtained in the X, Y, and Z planes of the image, giving the image a 3-dimensional depth (Z-stack) at 100× magnification with a Zeiss Cell Observer Yokogawa Spinning Disk confocal microscope (Cell Observed SD, Carl-Zeiss, Oberkochen, Germany) located in the Microscopia Óptica de Luz Gustavo de Oliveira Castro (Plamol) platform in Universidade Federal do Rio de Janeiro. […] On average, thirty cells per field were analyzed in fourteen fields by experiments. […]

[4] = test system: Beas-2B (bronchial human respiratory epithelial) cells; experiment: MTT cell viability, healthy Beas-2B cells; assay type: cell-based; settings: 3.125-50 µM, 24, 48 and 72 h
B16F10 cells [5] = experiment: Flow cytometry-based apoptosis detection (sub-G0/G1 DNA content); assay type: cell-based, murine; settings: 50 µM, 24 h, propidium iodide; control Sub-G1 4.4%
Method: Figure 2 Psd1 promotes B16F10 live cell membrane permeabilization as monitored by SYTOX Green fluorescence. (A) Psd1 untreated and hydrogen peroxide-treated B16F10 cells. (B) A total of 1.5 × 10^4 B16F10 cells were incubated with 3 or 50 µM Psd1 for 30 min. (C) 1.5 × 10^4 B16F10 cells were incubated with 50 µM Psd1 for 1 h. All experiments were performed at 37 °C. Nucleus staining is shown in green (SYTOXGreen), and mitochondria are shown in red (MitoTracker Red CMXRos). Images are shown at 20× magnification. […] (E) Psd1 induces apoptosis in B16F10 cells. B16F10 cells were treated with 50 µM Psd1 for 24 h and labeled with propidium iodide, and the DNA content was analyzed by flow cytometry for the sub-G0/G1 profile. At least two independent experiments were performed. TEXT PRINTED IN THE PICTURE: (E) Control: Sub-G1: 4.4% | (E) Psd1: Sub-G1: 60.6% (50μM)
B16F10 cells (4 × 10^5 cells) were treated with 50 μM Psd1 for 24 h. After treatment, the cells were trypsinized, centrifuged, and washed twice with phosphate-buffered saline (PBS). The cells were then stained with Nicoletti buffer (0.1% sodium citrate, 0.1% NP-40, 200 μg/mL RNase, and 50 μg/mL propidium iodide). Doublets and debris were identified and excluded. Analysis of the DNA content was performed by collecting 20,000 events using a BD FACSCalibur flow cytometer (BD Biosciences, San Jose, CA, USA). […]

[6] = test system: lung inflammatory cells, C57BL/6 mice; experiment: Lung histology (HE), inflammatory foci; assay type: in vivo, mouse
Description: Figure 7 Psd1 inhibited the appearance of inflammatory cells in lung tissues. Two animals from each group of the in vivo experiment were anaesthetized and submitted to transcardial perfusion for further histological procedures. The lungs were removed and prepared for hematoxylin and eosin (HE) staining as described in the Materials and Methods. (A) Representative images from the lungs of one animal from each experimental group. […] The left and right panels indicate 10× and 20× magnifications, and the bars represent 200 and […], respectively. (B) Quantification of inflammatory infiltration (± SEM) was obtained in six fields, corresponding to 90% of the tissue. […] Values represent the mean ± SD of two independent experiments analyzed by one-way ANOVA and Bonferroni’s multiple comparison test.
After the above procedure, two animals from each group were anaesthetized and submitted to treatment with 4% paraformaldehyde in 0.1 M phosphate buffer (pH 7.4) by transcardial perfusion. The lung was removed and immersed in the same fixative solution. The lung specimens were sliced into 5 mm pieces, dehydrated through an ascending ethanol series (70, 95, and 100% ethanol for 30 min each) and then embedded in paraffin using standard procedures. Serial 5 µm-thick sections were prepared using a sliding microtome (Leica Microsystems, Wetzlar, Germany). Hematoxylin and eosin (HE) staining wereperformed to quantify possible foci of inflammatory infiltrates and fibrosis in experimental and control animals. The stained sections were observed, and digital images were taken with a Zeiss AxioPhot fluorescence microscope (Carl-Zeiss, Oberkochen, Germany). Specifically, two slices of each sample (six fields of each slice corresponding to approximately 90% of the slice) were used for quantitative analysis to obtain the mean value.

Psd1: 46-amino acid residue plant defensin isolated from pea seeds, expressed in Pichia pastoris (PDB 1JKZ) (KTCEHLADTYRGVCFTNASCDDHCKNKAHLISGTCHNWKCFCTQNC)
R8 cell viability (LDH release) [1]: no alteration in cell viability | HEK-293 cell viability [2]: no alteration in cell viability | Mitochondria red marker (MitoTracker) (B16F10 cells [3]; 30 min): lower mitochondria red marker | Mitochondria red fluorescence (MitoTracker) (B16F10 cells [3]; 1 h, probably superposition of SYTOXGreen and MitoTracker signals): brighter red fluorescence signal | Beas-2B cell viability (MTT) [4]: no alteration in cell viability was observed even after 72 h of exposure | Sub-G0/G1 (sub-G1) cells (B16F10 cells [5]): 60.6% | Inflammatory foci, Psd1 alone ([6]; 1 mg/kg Psd1 alone, i.v., day 21, p < 0.001 vs B16F10): very low inflammatory foci | Number of lung inflammatory cells ([6]; 1 mg/kg Psd1 i.v. with B16F10 cells): near zero | Accumulation of lung inflammatory cells ([6]; 1 and 3 mg/kg Psd1 i.v. with B16F10 cells, day 21, p < 0.001 vs B16F10): significant reduction in the accumulation of inflammatory cells
